Patent US8865222B2, “Beta-casein assemblies for enrichment of food and beverages and methods of preparation thereof” (Technion Research and Development Foundation Ltd., priority 2008, dated 2014)

Assays:
Format in all cases: physicochemical
[1] = Vitamin D stability in aqueous solution, n-hexane extraction and Reversed Phase HPLC; settings: pH 7 and pH 2.5, room temperature
Description: We further tested the stability of vitamin D:beta-casein solutions in both acidic and neutral pH environments. The solutions prepared were left for a week at room temperature and the sampling was made once a day (in the first three days of the experiment) and once every two days (toward the end of the experiment). Vitamin D was extracted by n-hexane from each sample and its amount was analyzed using Reversed Phase HPLC. The amount of the vitamin left was compared to the amount extracted at time 0. The experiment was performed at two different pH values (pH 7 and pH 2.5).

[2] = Turbidity (solution absorbance at 600 nm); settings: vitamin D 82.5 μg/ml, in the absence of beta-casein, pH 7.0 and 2.5
[3] = Visual comparison of vitamin D solubilization, clarity and precipitation with and without beta-casein

vitamin D stability (amount left versus time 0) ([1]; in the presence of beta-casein, one week): degradation process is much slower
turbidity [2]: sudden increase in turbidity value
precipitation ([3]; PBS, in the absence of beta-casein, after a week): not observed
precipitation ([3]; PBS, in the presence of beta-casein, after a week): not observed
aggregation out of solution ([3]; lactic acid buffer pH 2.5, no beta-casein, after a week): white precipitation
precipitation ([3]; lactic acid buffer pH 2.5 with beta-casein 0.5% wt, molar ratio 2:1, after a week): not observed
SMILES: C=C1CC[C@H](O)C/C1=C/C=C1\CCC[C@]2(C)[C@@H]([C@H](C)/C=C/[C@H](C)C(C)C)CC[C@@H]12 [vitamin D, ergocalciferol]
vitamin D stability (amount left versus time 0) ([1]; vitamin D alone, aqueous solution): degrades rapidly leaving almost no trace after only two days
